Target: T1, hVDAC2 (Homo sapiens, UniProt P45880)
T1 sequence (P45880 2-294): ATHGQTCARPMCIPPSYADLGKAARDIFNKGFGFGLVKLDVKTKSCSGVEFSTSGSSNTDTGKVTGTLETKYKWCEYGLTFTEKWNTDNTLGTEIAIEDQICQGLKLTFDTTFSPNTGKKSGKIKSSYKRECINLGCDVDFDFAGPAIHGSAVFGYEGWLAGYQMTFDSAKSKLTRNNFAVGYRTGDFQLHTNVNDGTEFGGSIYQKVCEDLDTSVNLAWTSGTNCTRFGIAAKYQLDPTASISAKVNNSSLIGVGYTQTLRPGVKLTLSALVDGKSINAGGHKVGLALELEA
Assay: biochemical

CCOc1ccccc1-n1c(C(C)N2CCN(C(=O)COc3ccc(Cl)cc3)CC2)nc2ccccc2c1=O (stereo not shown) [erastin]
EC50: 52.6 ± 28.2 nM

Source: publication PMC3082971 (Biochemistry, 2011)
